Measurements published in US20120116027A1, “PROCESS FOR THE PURIFICATION OF HUMAN GROWTH HORMONE POLYPEPTIDES USING AFFINITY RESINS COMPRISING SPECIFIC LIGANDS” (priority 2008, published 2012).
Where a SMILES comes first, the peptide text is derived from it. [ ]: non-standard residue; d: D form. The star is where a group is joined. X1 = O=C(c1ccc2ccccc2c1O)*; Dap = NC[CH](N)C(=O)O; Aib = CC(C)(N)C(=O)O

How the values were obtained:
wild type hGH = wild type hGH (Homo sapiens, UniProt P01241); experiment: Binding capacity for wild type hGH of ligands synthesized on Fractogel Amino (1 mL columns); conditions: ligand on Fractogel Amino; for Measured binding capacity (mg hGH/mL resin): load 5 mg/mL hGH in 25 mM Tris-HCl pH 7.50, 0.5 mL/min, elution gradient 1M NaCl/25 mM Tris pH 7.5
Protocol: (§1) were stepwise synthesized on Fractogel Amino (Merck) with amine loading 0.16 mmol/g and particle size 40-90 μm. The resins were washed thoroughly with DMF, DCM, and ethanol and packed in 1 mL columns and washed with 0.2 M NaOH and then with 20% ethanol, and equilibrated with 25 mM Tris-HCl at pH=7.50 (buffer A).
Binding capacity for wild type hGH was measured for each resin sample by • a) loading the column with a 5 mg/mL solution of hGH in buffer A at a flow rate of 0.5 mL/min, • b) washing the column with at least 10 column volumes of buffer A until a steady low UV absorbance of the buffer leaving the column was observed, • c) eluting the protein by applying a gradient of 1M NaCl/25 mM Tris at pH=7.5 (buffer B) • d) cleaning the column with 0.2 M NaOH, then with buffer B, and then with buffer A.
The binding capacity was calculated by integrating the UV signal during step (c) and indicated for each ligand above.

hGH [1] = target: T1, hGH (Homo sapiens, UniProt P01241); experiment: Resin selectivity test with hGH fermentation broth, judged by SDS page gels of the eluate; conditions: ligand on Fractogel Amino, hGH fermentation broth diluted five times with buffer A
T1 construct: made in house; host or cells: E. coli
Protocol: as §1
Resin selectivity was tested by • (a) loading the column with hGH fermentation broth diluted five times with buffer A • (b) washing the column with at least 10 column volumes of buffer A until a steady low UV absorbance of the buffer leaving the column was observed, • (c) eluting the protein by applying a gradient of buffer B • (d) cleaning the column with 0.2 M NaOH, then with buffer B, and then with buffer A.
“Observed selectivity” was judged by SDS page gels of the eluate […] and indicated for each ligand above. An example of a resin with “very good” selectivity (ligand L11 on Fractogel) and an example of a resin with “moderate” selectivity (ligand L6 on Fractogel) are given in FIG. 3.

hGH [2] = target: T1, hGH; experiment: Dynamic 10% BT capacity of ligand L10 on Fractogel Amino M; format: binding; conditions: load 50 mM BisTris-HCl pH 6.50, 0.5 mL/min (150 cm/h), 15° C.
Protocol: (§2) Ligand L10 from Example 1 was synthesized step-wise on Fractogel Amino M (Supplied by Merck KgaA), and the resulting affinity resin was packed in Tricorn 5/50, 1 mL (GE Healthcare).
(§3) hGH standard: hGH was dissolved to 20 mg/mL in freshly made 50 mM NH41-1CO3, then diluted to 2 or 3.3 mg/mL with Buffer A (50 mM Tris-HCl, pH=7.50, T=15° C. (20° C. in Äkta)).
(§4) hGH micro-filtrate buffer: 2.61 mg/mL hGH E. coli micro-filtrate from hGH harvest. A frozen 15 mL sample was thawed at room temperature and filtered using a syringe-driven filter ([…]). Diluted to 0.52 mg hGH/mL with Buffer A.
(§5) Buffer A1: 50 mM BisTris-HCl, pH=6.50, T=15° C. (20° C. in Äkta), flow 0.5 mL/min (150 cm/h)
(§6) Buffer Z1: 25 mM Tris-HCl, 1M NaCl, pH=7.50, T=15° C. (20° C. in Äkta), flow 0.5 mL/min (150 cm/h)

hGH [3] = experiment: as above; format: binding, human; conditions: load 50 mM BisTris-HCl pH 6.50, 0.5 mL/min (150 cm/h), 15° C.
Protocol: as §2, §3, §4, §5, §6

hGH [4] = target: T1, hGH; experiment: Affinity purification of hGH from E. coli micro-filtrate with ligand L10 resin (purity and recovery); conditions: load 50 mM BisTris-HCl pH 6.25
Protocol: as §2, §4
An elution buffer of 200 mM Tris-HCl, pH 8.00, 1 M NaCl, 30% propylene glycol results in high recovery of hGH. This elution buffer and the aforementioned 50 mM BisTris-HCl, pH 6.5 load buffer was used. The column was overloaded with hGH. The results from an experiment using these conditions are shown below:
The loading buffer was changed to 50 mM BisTris-HCl at pH 6.25 and different elution buffers at pH 7.25, 7.50 and 8.00 were tested.
Chromatograms and gels are shown in FIG. 8 for the run with the following conditions: Load buffer: 50 mM BisTris at pH 6.25 and Elution buffer: 50 mM BisTris at pH 8.00

hGH [5] = target: T1, hGH; experiment: Evaluation of ligand synthesized directly on Fractogel in 5 mL scale (capacity, recovery, purity); format: binding; conditions: load 50 mM BisTris pH 6.25, elution 50 mM BisTris pH 8.00 gradient; for Dynamic 10% BT capacity for micro-filtrate hGH / Dynamic 10% BT capacity for pure hGH: 2 mL/min
Protocol: Ligand L14 from Example 1 was synthesized directly on Fractogel. The resin was evaluated in 5 mL scale.
Load buffer: 50 mM BisTris at pH 6.25
Elution buffer: 50 mM BisTris at pH 8.00 gradient
Temperature: 15° C. (20° measured by Äkta)
Ligand L16 from Example 1 was synthesized directly on Fractogel Amino. This resin was evaluated in 5 mL scale.

Chain of wild type hGH (P01241 27-217): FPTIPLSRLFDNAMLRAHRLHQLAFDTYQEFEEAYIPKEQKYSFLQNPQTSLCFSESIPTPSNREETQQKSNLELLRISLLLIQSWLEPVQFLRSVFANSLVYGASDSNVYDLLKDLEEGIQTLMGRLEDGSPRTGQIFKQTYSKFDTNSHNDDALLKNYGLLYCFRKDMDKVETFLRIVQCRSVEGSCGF
T1 sequence (P01241 27-217): as above

| Measured binding capacity (mg hGH/mL resin) (wild type hGH) | Observed selectivity (hGH [1]) | Compound | also measured |
| --- | --- | --- | --- |
| 14 | Moderate | N=C(N)NCCC[C@H](N)C(=O)N[C@@H](Cc1ccc(O)cc1)C(=O)N[C@@H](CNC(=O)C1c2ccccc2Oc2ccccc21)C(=O)O [L1] | – |
| 7 | Good | N=C(N)NCCC[C@H](NC(=O)[C@@H](N)Cc1ccccc1)C(=O)N[C@@H](CNC(=O)C1c2ccccc2Oc2ccccc21)C(=O)O [L2] | – |
| 1 | Good | N[C@@H](Cc1ccccc1)C(=O)N[C@@H](Cc1ccccc1)C(=O)N[C@@H](CNC(=O)C1c2ccccc2Oc2ccccc21)C(=O)O [L4] | – |
| 2 | Good | Cc1nn(-c2ccccc2)nc1C(=O)NC[C@H](NC(=O)[C@H](Cc1ccccc1)NC(=O)[C@@H](N)Cc1c[nH]c2ccccc12)C(=O)O [L5] | – |
| 13 | Moderate | NCCCC[C@H](NC(=O)[C@@H](N)Cc1ccccc1)C(=O)N[C@@H](CNC(=O)c1scc(S(=O)(=O)c2ccccc2)c1N)C(=O)O [L6] | – |
| 2 | Good | CC[C@@H](C)[C@H](NC(=O)[C@@H](N)Cc1c[nH]c2ccccc12)C(=O)N[C@@H](CNC(=O)c1scc(S(=O)(=O)c2ccccc2)c1N)C(=O)O [L7] | – |
| 6 | Moderate | CC[C@H](C)[C@H](N)C(=O)N[C@@H](Cc1ccc(O)cc1)C(=O)N[C@@H](CNC(=O)c1scc(S(=O)(=O)c2ccccc2)c1N)C(=O)O [L8] | – |
| 10 | Good | N=C(N)NCCC[C@H](N)C(=O)N[C@@H](Cc1ccccc1)C(=O)N[C@@H](CNC(=O)C1CC(=O)c2ccccc21)C(=O)O (stereo partly shown) [L9] | – |
| 3 | Very good | CC[C@H](C)[C@H](N)C(=O)N[C@@H](Cc1ccccc1)C(=O)N[C@@H](CNC(=O)c1c2c(nc3ccccc13)CCCC2)C(=O)O [L10] | Dynamic 10% BT capacity (purified hGH) (hGH [2]): 6.7 mg/mL; dynamic 10% BT capacity for hGH micro-filtrate (hGH [3]): 3.22 mg/mL; Purity of eluate (hGH [4]; Elution pH 7.25): 91%; Purity of eluate (hGH [4]; Elution pH 7.50): 85%; Purity of eluate (hGH [4]; Elution pH 8.00): 85% |
| 2 | Very good | N[C@@H](Cc1ccccc1)C(=O)N[C@@H](Cc1ccccc1)C(=O)N[C@@H](CNC(=O)c1c2c(nc3ccccc13)CCCC2)C(=O)O [L11] | – |
| 2 | Good | O=C(NC[C@H](NC(=O)[C@H]1CCCN1C(=O)[C@H]1CCCN1)C(=O)O)c1c2c(nc3ccccc13)CCCC2 [L12] | – |
| >10 | Moderate | C[C@@H](O)[C@H](NC(=O)[C@@H](N)CCCNC(=N)N)C(=O)N[C@@H](CNC(=O)c1c2c(nc3ccccc13)CCCC2)C(=O)O [L13] | – |
| >5 | Good | NCCCC[C@H](N)C(=O)N[C@@H](Cc1ccccc1)C(=O)N[C@@H](CNC(=O)c1c2c(nc3ccccc13)CCCC2)C(=O)O [L14] | Purity (hGH [5]): 71%; Dynamic 10% BT capacity for micro-filtrate hGH (hGH [5]): 6.7 mg/mL; Dynamic 10% BT capacity for pure hGH (hGH [5]): 16.3 mg/mL |
| >5 | Good | Cc1nc2ccccn2c1C(=O)NC[C@H](NC(=O)[C@H](CCCNC(=N)N)NC(=O)[C@@H](N)Cc1ccccc1)C(=O)O [L15] | – |
| >10 | Moderate | CC[C@@H](C)[C@H](N)C(=O)N[C@@H](CCCCN)C(=O)N[C@@H](CNC(=O)c1c(C)nc2ccccn12)C(=O)O [L16] | Purity (hGH [5]): 70%; Dynamic 10% BT capacity for micro-filtrate hGH (hGH [5]): 5.7 mg/mL; Dynamic 10% BT capacity for pure hGH (hGH [5]): 11.9 mg/mL |
| <0.5 | – | CC(O)C(N)C(=O)NC(CC(=O)O)C(=O)NC(CNC(=O)c1ccc2nccnc2c1)C(=O)O (stereo not shown) [L17] | – |
| <0.5 | – | Cc1ccc([N+](=O)[O-])c(C(=O)NCC(NC(=O)C(Cc2c[nH]cn2)NC(=O)C(N)CC(=O)O)C(=O)O)c1 (stereo not shown) [L18] | – |
| – | – | CC(C)(NC(=O)C(CNC(=O)c1ccc2ccccc2c1O)NC(=O)C(Cc1ccc(O)cc1)NC(=O)C(N)CCCNC(=N)N)C(=O)O (stereo not shown) [L19] (H-RY[Dap](X1)[Aib]-OH; configuration not given here) | binding capacity (wild type hGH; same procedures as Example 1): < 0.5 mg/mL |

| Compound | Measured binding capacity (mg hGH/mL resin) (wild type hGH) | Observed selectivity (hGH [1]) | also measured |
| --- | --- | --- | --- |
| N[C@@H](Cc1ccc(O)cc1)C(=O)N[C@@H](Cc1ccccc1)C(=O)N[C@@H](CNC(=O)C1c2ccccc2Oc2ccccc21)C(=O)O [L3] | 5 | Moderate | – |
